Test results taken from paper PMC10447463, “Data-mining unveils structure–property–activity correlation of viral infectivity enhancing self-assembling peptides” (Nature Communications, 2023).
“And” between values parts separate entries of the source, which are not always exact repeats. Equal values may be shown once. Read-outs that look alike come from different tables or passages of the source.

How the values were obtained:
[1] = tested on: HIV-1 infection of TZM-bl cells; assay: HIV-1 infectivity enhancement assay, β-galactosidase luminescence; format: cell-based; conditions: for Rel-EFC: infection relative to EF-C (QCKIKQIINMWQ = 1); for Log10 Infection Rel EFC: log10 of infection relative to EF-C; for Rel-to EFC (Feb-2021): n-fold infectivity relative to EF-C; for Log Infectivity: Log10 infection relative to EF-C, TZM-bl cells; for Log10 Infection Rel EF-C: HIV-1 infection of TZM-bl cells; for Abs. Inf.: absolute infection signal, HIV-1 on TZM-bl cells, β-galactosidase luminescence
[2] = format: physicochemical; conditions: for ThT Cat. / ThT-Fluorescence (categorical): ThT-active if fluorescence at least twice the control
Outline: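 Preformed peptide fibrils (1 mg/mL) mixed with 50 µM ThT in PBS, 15 min at RT, fluorescence ex 440/em 488 nm versus PBS blank, triplicates. Zeta potential: peptides at 1 mg/mL in PBS pH 7.4, aged 1 d at RT, diluted in 1 mM KCl, Smoluchowski from electrophoretic mobility.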

[3] = β-sheet content by ATR-FT-IR; format: physicochemical; conditions: for b -sheet / %: Fig. S7 panel A, β-sheet content by ATR-FT-IR
Outline: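 Measurements on freeze-dried PNF powders used a diamond ATR element, 64 scans each, with β-sheet fraction derived as previously reported. CR reflects loss of fluorescamine-reactive monomer after 3 kDa ultrafiltration, averaged over triplicates.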

[4] = Fig. S7 panel A (plotted against β-sheet content), asymmetric std dev errors
[5] = Fig. S7 panel B (plotted against CR), rounded to two decimals, asymmetric std dev errors
[6] = Log10 of infection rate relative to EF-C, Figure 3A source data
[7] = infection rate relative to EF-C, log10, data of Figure 2D
[8] = infection rate relative to EF-C, log10, source data of Figure 2C
[9] = Log10 of infection relative to EF-C, all peptides of FigS16
[10] = log10 of HIV-1 infection of TZM-bl cells relative to EF-C (EF-C = 0)

Sequence	Rel-EFC ([1]; 1.3 µM peptide)	Log10 Infection Rel EFC ([1]; 1.3 µM peptide)	Log Infectivity [1, 4]	Log Infectivity [1, 5]	Log10 Infection Rel EF-C [1, 6]	Log10 Infection Rel EF-C [1, 7]	Log10 Infection Rel EF-C [1, 8]	Log10 of Rel to EFC (Feb2021) [1, 9]	Abs. Inf. [1]	Log10 Inf. rel. to EF-C [1, 10]	Tht category (> 2 to blank = +) ([2]; Fig S10 panel D)	ThT Cat. ([2]; Fig S10 panel E)	ThT Cat, ([2]; ThT category, 1 if Rel. ThT >2)	ThT Cat. ([2]; ThT category, 1 if Rel. ThT >2)	ThT Cat. / ThT-Fluorescence (categorical) [2]	b -sheet / % [3]	further results
QCKIKQIINMWQ [reference compound]	1	0	0	0	0	0	0	0	21312.22222	0	1 (ThT. Cat is 1, if Rel. ThT >2)	1 (ThT. Cat is 1, if Rel. ThT >2)	1 (ThT. Cat is 1, if Rel. ThT >2)	1 (ThT. Cat is 1, if Rel. ThT >2)	1 (ThT. Cat is 1, if Rel. ThT >2)	51.73%	n-fold infectivity enhancement compared to virus-only infectivity ([1]; 1.3 µM peptide, listed as EF-C): 42 ± 7; Absolute Infectivity / RLU /s (Feb2021) ([1]; Feb2021, figures match the 1.3 µM column): 21312.22222 RLU /s; n-fold to virus (Feb2021) ([1]; Feb2021, infectivity relative to virus only): 42.02; Rel-to EFC (Feb-2021) ([1]; Feb2021): 1; n-fold to virus (Feb2021) ([1]; Feb2021 run, infectivity n-fold relative to virus alone): 42.02; Log10 of Rel to EFC (Feb2021) ([1]; Feb2021 run, log10 of infectivity relative to EF-C): 0; Rel-to EFC (Feb-2021) ([1]; Feb2021 run): 1; Rel-to EFC ([1]; Fig S8 panels B, D, infectivity enhancement relative to EF-C): 1; n-fold to virus ([1]; Fig S8 panels B, D, infectivity n-fold relative to virus alone): 42.02; infectivity ([1]; infectivity class (low / medium / high) of the peptide in the sequence-pattern analysis, Fig. S22-A4, class limits not given): high; Log10 Inf. rel. to EF-C ([1]; log10 of HIV-1 infection of TZM-bl cells relative to EF-C, Fig S15 source data, asymmetric std dev errors): 0; Abs Infection at 0.26µM ([1]; peptide 0.26 µM, mean of n = 3, Figure 7A): 39053.33333; Abs Infection at 1.3 µM ([1]; peptide 1.3 µM, mean of n = 3, Figure 7A): 101036.6667; Abs Infection at 6.5 µM ([1]; peptide 6.5 µM, mean of n = 3, Figure 7A): 141063.3333; Tht rel to blank (42.1851851851852) ([2]; ThT fluorescence relative to blank (42.1851851851852 a.u.)): 3.802; Tht rel to blank (42.1851851851852) ([2]; ThT fluorescence relative to blank, blank = 42.1851851851852): 3.802; Tht category (> 1.5 to blank = +) ([2]; category 1/0): 1 (ThT. Cat is 1, if Rel. ThT >2); Tht rel to blank (42.1851851851852) ([2]; relative to blank 42.1851851851852 a.u.): 3.802; FTIR ß-sheet content/ % [3]: 39.05%; FTIR ß-sheet content/ % ([3]; ATR-FT-IR, listed as EF-C): 39% and 39.05%
RGDKIRGDKI	0,01	-2,13	-2.126	-2.13	-2.13	-2.126	-2.126	–	163.3	-2.126	0 (ThT-inactive (N-Fold <2))	0 (ThT-inactive (N-Fold <2))	0 (ThT-inactive (N-Fold <2))	0 (ThT-inactive (N-Fold <2))	0 (ThT-inactive (N-Fold <2))	15.01%	Tht category (> 2 to blank = +) ([2]; FigS12 panel A): 0 (ThT-inactive (N-Fold <2)); ThT Cat, ([2]; FigS12 panel B): 0 (ThT-inactive (N-Fold <2))
RGECKFKFQF	0,33	-0,48	-0.4776	-0.48	-0.48	-0.4776	-0.4776	-0.48	7411	-0.4776	1 (ThT. Cat is 1, if Rel. ThT >2)	1 (ThT. Cat is 1, if Rel. ThT >2)	1 (ThT. Cat is 1, if Rel. ThT >2)	1 (ThT. Cat is 1, if Rel. ThT >2)	1 (ThT. Cat is 1, if Rel. ThT >2)	46.18%	–
RGEKIKIQINM	0,24	-0,61	-0.6134	-0.61	-0.61	-0.6134	-0.6134	-0.61	7838	-0.6134	1 (ThT. Cat is 1, if Rel. ThT >2)	1 (ThT. Cat is 1, if Rel. ThT >2)	1 (ThT. Cat is 1, if Rel. ThT >2)	1 (ThT. Cat is 1, if Rel. ThT >2)	1 (ThT. Cat is 1, if Rel. ThT >2)	38.16%	–
